# Assay results as given in patent publication US12371507B2, “CDCP1 antibodies and antibody drug conjugates” (Beth Israel Deaconess Medical Center, priority 2018, dated 2025).
# Non-standard residues stand in square brackets, D forms with d. Residues, ends and D or L forms follow the SMILES beside them. *: point of attachment. Dolaproine = CO[C@@H]([C@@H]1CCCN1)[C@@H](C)C(=O)O; Dil = CC[C@H](C)[C@H](NC)[C@@H](CC(=O)O)OC; Doe = c1ccc(C[C@H](N*)c2nccs2)cc1; Aib = CC(C)(N)C(=O)O
# Assays:
# H1299 cells = test: In vitro cytotoxicity (ATPlite viability, four days); type: cell-based; conditions: Homo sapiens, NCI-H1299; H1299, NSCLC
# Procedure: (§1) Cells were incubated in a 6-fold 9-point dilution series of respective ADCs ranging in concentration from 600 nM to 0.357225 pM. […] The mean of luminescence counts of triplicate samples were normalized to a medium only control (growth medium no ADC) to calculate percent viability.
# H2009 cells = test: as above; type: cell-based; conditions: Homo sapiens, NCI-H2009; H2009, lung adenocarcinoma
# Procedure: as §1
# PC3 cells = test: as above; type: cell-based; conditions: Homo sapiens, PC-3; PC3, prostate cancer
# Procedure: as §1
# PE/CA-PJ-49 cells = test: as above; type: cell-based; conditions: Homo sapiens; PE/CA-PJ-49, oral squamous cell carcinoma
# Procedure: as §1
# SCC-25 cells = test: as above; type: cell-based; conditions: Homo sapiens; SCC-25, head and neck cancer
# Procedure: as §1
# [1] = system: primary human aortic smooth muscle cells (HuAoSMC); test: as above; type: cell-based
# Procedure: as §1
# [2] = system: NSCLC model PDX-NSX-15137; test: PDX tumor growth versus standard of care; type: in vivo, mouse; conditions: 22.5 mg/kg
# Procedure: (§2) The effects of ADCs were evaluated on the in vivo growth of human tumor patient-derived xenografts (PDX) implanted into immunodeficient NOD/SCID mice. To establish initial PDX cell lines, primary human tumor resection samples were procured from clinical sites following Institutional Review Board for the Protection of Human Subjects approval and in accordance with HIPAA regulations. Tumor fragments were implanted subcutaneously in mice and animals were monitored for health status daily and for tumor growth by visual inspection twice per week. Once the tumors were palpable, measurements of tumor volume began in order to track tumor growth and estimate cell doubling time. Tumor volume was estimated using the equation V=(A*B^2)/2 where A is the long axis and B is the short axis. When tumors reached a volume of 500 mm^3 to 1,500 mm^3, they were harvested for study and for re-transplant in naïve mice as a PDX line. Tumors were mechanically dissociated into fragments for cryopreservation or additional passage in mice.
# (§3) For efficacy studies, PDX tumors were aseptically harvested from passaging mice and minced into fragments approximately 2 mm in diameter. The PDX tumor fragments were transplanted into the right flank of naïve 7-10-week old NOD-SCID mice.
# (§4) Tumor growth was initially followed by palpability with measurements beginning once tumor volumes reached about 30 mm^3. Studies were randomized based on tumor size once a cohort of tumor-bearing mice reached an average of 200 mm^3. Animals were then dosed by intravenous injection of test ADCs once every four days (day 1, 5, 9, and 13) for four total doses (q4d×4). For each tumor measurement taken at regular intervals the tumor volume was calculated and an average tumor size +/− the standard error of the mean (SEM) was derived per cohort of surviving animals to determine tumor growth rates. In some studies, a “waterfall plot” was derived by calculating the maximum observed percent difference in tumor volume from the starting volume post the final dose of ADC. […]
# [3] = system: head and neck cancer model PDX-HNX-24715; test: PDX tumor growth versus standard of care; type: in vivo, mouse; conditions: 5 mg/kg
# Procedure: as §2, §3, §4
compound,measurement,setting,value
"CC[C@H](C)[C@@H]([C@@H](CC(=O)N1CCC[C@H]1[C@H](OC)[C@@H](C)C(=O)N[C@@H](Cc1ccccc1)c1nccs1)OC)N(C)C(=O)[C@@H](NC(=O)C(C)(C)N)C(C)C [Aur0101, 2-methylalanyl-N-[(3R,4S,5S)-3-methoxy-1-{(2S)-2-[(1R,2R)-1-methoxy-2-methyl-3-oxo-3-{[(1S)-2-phenyl-1-(1,3-thiazol-2-yl)ethyl]amino}propyl]pyrrolidin-1-yl}-5-methyl-1-oxoheptan-4-yl]-N-methyl-L-valinamide] (H-[Aib]V[Dil][Dolaproine]-Doe)",IC50,H1299 cells,0.202 nM
same,IC50,H2009 cells,0.116 nM
same,IC50,PC3 cells,0.0636 nM
same,IC50,PE/CA-PJ-49 cells,0.0373 nM
same,IC50,SCC-25 cells,0.047 nM
same,IC50,[1],0.176 nM
"CC(=O)O[C@H]1C(=O)[C@@]2(C)[C@H]([C@H](OC(=O)c3ccccc3)[C@]3(O)C[C@H](OC(=O)[C@H](O)[C@@H](NC(=O)c4ccccc4)c4ccccc4)C(C)=C1C3(C)C)[C@]1(OC(C)=O)CO[C@@H]1C[C@@H]2O [Paclitaxel, reference compound]",average tumor size at day 35,[2],doubled
same,day by which all mice had been sacrificed due to excessive tumor growth,[2],≤ 42 days
"N.N.[Cl][Pt][Cl] [cisplatin, reference compound]",tumor size at day 25,[3],more than doubled in size
